From patent US10912815B2, “Inhibitors of mitochondrial fission and methods of use thereof” (The Board of Trustees of the Leland Stanford Junior …, priority 2011, dated 2021)
No end group written: not given here.

Columns and labels:
[1] = tested on: Primary rat dopaminergic neurons; test: Mitochondrial fragmentation in primary dopaminergic neurons exposed to MPP+; assay type: cell-based; conditions: P110 1 μM, MPP+ 1 μM, 15 hrs, FIG. 10B
Description: Primary rat dopaminergic neurons (cultured for 6 days) were treated without or with P110 (1 μM) followed by treatment with or without MPP+(1 μM). Two hrs following MPP+ treatment, the cells were stained with MITOSOX™ red (to measure mitochondrial superoxide production) and anti-TH antibody (a marker of dopaminergic neurons). Fifteen hrs after MPP+ treatment, cells were stained with anti-TH antibody and anti-Tom20 antibody (a marker of mitochondria).

[2] = tested on: isolated mouse liver mitochondria with Drp1 recombinant protein; test: Cytochrome c levels in isolated mouse liver mitochondria incubated with Drp1; assay type: biochemical; conditions: 8 min of Drp1 incubation, FIG. 6D top
Description: Mitochondrial membrane potential was also determined using TMRM (tetramethylrhodamine methylester). Fifty μg of mitochondria were incubated with recombinant Drp1 (50 ng) followed by incubation with TMRM (0.5 μM) in the presence or absence of P110 (1 μM) or NAC (2.5 mM). Fluoresence detection was performed using black 96-well plates in a fluorescence microplate reader at 560 nm excitation and 690 nm emission and potential was assessed by quenching of the fluorescent signal. The data are presented as mean±S.E. of percentage relative to control mitochondria from three independent experiments (FIG. 6B, #, p<0.05 vs. control cells; *, p<0.05; **, P<0.01 vs. MPP+- or CCCP-treated cells). Isolated mouse liver mitochondria (50 μg) were incubated with Drp1 recombinant protein (50 ng) in the presence or absence of P110 (1 μM). A kinetic change of mitochondrial superoxide production was determined by using MITOSOX™ (red mitochondrial superoxide indicator). […] Mitochondrial membrane potential of isolated mouse liver mitochondria was determined by TMRM, as described above, in the indicated groups. […] Protein levels of cytochrome c in the mitochondria were determined by western blot analysis with anti-cytochrome c antibodies in the indicated groups (insert, FIG. 6D). Total ROS production was determined by staining SH-SY5Y cells with CM2HDCFA (1 μM […] at 37° C.) in the indicated groups. […]

Drp1 = test: Confocal imaging of Drp1 localization on mitochondria in SH-SY5Y cells; assay type: cell-based, human; conditions: SH-SY5Y exposed to MPP+ or CCCP, FIG. 3G
Description: (§1) The effects of MPP+ or CCCP on translocation of Drp1 in the absence and presence of P110 was measured using confocal microscopy. Cultured SH-SY5Y cells in black 96-well plate were treated with Drp1 peptide inhibitor P110 (1 μM) 30 min prior to treatment of MPP+ (2 mM) or CCCP (5 uM). After 2 hrs of treatment, cells were stained with MITOSOX™ (red mitochondrial superoxide indicator) (5 uM, for 10 min, mitochondrial ROS) or TMRM (0.5 uM, for 20 min, MMP) at 37° C. For total ROS detection, cells were treated with MPP+ or CCCP for 24 hrs. ROS level was measured by CM-H2DCFDA (1 μM for 30 min, Invitrogen). Cells were washed with PBS for three times. The detection was performed in a fluorescence microplate reader (Tecan, Infinite M1000) according to manufacturer's instructions. Measurements were normalized to the cell number counted using Hoechst staining.
The data, quantitated by Image J software, is provided in a histogram FIG. 3G.

SH-SY5Y cells = test: Total ROS production in SH-SY5Y cells (CM-H2DCFDA); assay type: cell-based, human; conditions: MPP+ and CCCP 24 hrs, FIG. 6E
Description: as §1
Mitochondrial membrane potential was also determined using TMRM (tetramethylrhodamine methylester). […] Fluoresence detection was performed using black 96-well plates in a fluorescence microplate reader at 560 nm excitation and 690 nm emission and potential was assessed by quenching of the fluorescent signal. […] A kinetic change of mitochondrial superoxide production was determined by using MITOSOX™ (red mitochondrial superoxide indicator). […]

dynamin-1 = target: T1, dynamin-1 (Homo sapiens, UniProt Q05193); test: In vitro GTPase assay, recombinant dynamin-1; assay type: biochemical; conditions: recombinant dynamin-1 25 ng, FIG. 2B
T1 sequence (Q05193 1-864): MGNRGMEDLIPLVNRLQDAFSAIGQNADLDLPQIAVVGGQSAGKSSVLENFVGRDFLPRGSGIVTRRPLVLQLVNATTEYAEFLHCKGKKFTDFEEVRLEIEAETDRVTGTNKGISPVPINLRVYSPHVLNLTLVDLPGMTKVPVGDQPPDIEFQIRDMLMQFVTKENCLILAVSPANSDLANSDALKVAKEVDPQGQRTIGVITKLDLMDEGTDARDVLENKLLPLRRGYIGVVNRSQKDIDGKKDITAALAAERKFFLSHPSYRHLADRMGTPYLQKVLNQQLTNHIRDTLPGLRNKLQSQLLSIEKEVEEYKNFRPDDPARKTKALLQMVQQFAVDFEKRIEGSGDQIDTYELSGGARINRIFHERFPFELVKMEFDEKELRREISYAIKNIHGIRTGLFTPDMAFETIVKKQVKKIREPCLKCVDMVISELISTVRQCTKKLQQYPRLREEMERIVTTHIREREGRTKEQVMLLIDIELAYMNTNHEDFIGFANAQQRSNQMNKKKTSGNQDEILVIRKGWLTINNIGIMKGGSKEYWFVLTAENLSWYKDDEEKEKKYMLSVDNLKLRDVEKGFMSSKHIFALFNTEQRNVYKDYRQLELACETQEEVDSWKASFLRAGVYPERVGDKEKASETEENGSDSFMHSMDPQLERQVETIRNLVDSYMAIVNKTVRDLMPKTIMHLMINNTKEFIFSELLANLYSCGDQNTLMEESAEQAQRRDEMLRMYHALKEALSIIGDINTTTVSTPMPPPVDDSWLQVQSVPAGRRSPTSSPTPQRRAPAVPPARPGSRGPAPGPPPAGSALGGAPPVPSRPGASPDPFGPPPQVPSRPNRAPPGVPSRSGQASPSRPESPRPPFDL
Description: First, mitochondrial fission inhibitor constructs were tested to determine what, if any, effects each peptide had on enzyme (GTPase) activity. Recombinant protein Drp1, Mfn1, OPA1 or dynamin-1 (25 ng) was incubated with the indicated modulator peptides for 30 min. GTPase activity was assayed in vitro using a GTPase assay kit (Innova Biosciences, Littleton, USA, or Novus Biologicals, Littleton, Colo.) according to manufacturer's instructions.

In the case of “RRRQRRKKRGYGGDLLPRGS (RRRQRRKKRGYGGDLLPRGS-NH2) [P110, TAT47-57 carrier, GG linker, Drp1 region 110 (GTPase domain) peptide DLLPRGS; C-terminus C(O)-NH2]”, the mitochondrial fragmentation [1] is reported as “reduced mitochondrial fragmentation”, the “cytochrome c release from the mitochondria” value [2] is reported as “inhibited cytochrome c release” and the “co-localization of Drp1 with mitochondria” value (Drp1) is reported as “greatly reduced”. The “total ROS produced by the mitochondrial stressors” value (SH-SY5Y cells) was “greatly reduced” and the “effect on GTPase activity of dynamin-1” value (dynamin-1) was “no effects”.
